Measurements published in patent US12643896B2, “Dicyclopropylmethyl derivatives as IL-17 modulators” (UCB Biopharma SRL, priority 2020, dated 2026).

target: T1, IL-17A (Homo sapiens, UniProt Q16552); assay: Inhibition of IL-17A induced IL-6 release from dermal fibroblast cell line (HDF cell line assay); type: cell-based; conditions: human dermal fibroblasts (HDF) stimulated with IL-17A 50 pM + TNF-α 25 pM; IL-6 measured by HTRF; pIC50 = −log10[IC50], IC50 molar
T1 sequence (Q16552 24-155): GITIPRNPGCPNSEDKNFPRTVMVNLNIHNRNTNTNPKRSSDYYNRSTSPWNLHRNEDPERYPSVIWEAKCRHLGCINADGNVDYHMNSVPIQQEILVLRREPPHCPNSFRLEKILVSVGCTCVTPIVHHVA
Excerpt: Inhibition of IL-17A Induced IL-6 Release from Dermal Fibroblast Cell Line
The purpose of this assay is to test the neutralising ability to IL-17 proteins, in a human primary cell system. Stimulation of normal human dermal fibroblasts (HDF) with IL-17 alone produces only a very weak signal but in combination with certain other cytokines, such as TNFα, a synergistic effect can be seen in the production of inflammatory cytokines, i.e. IL-6.
HDFs were stimulated with IL-17A (50 pM) in combination with TNF-α (25 pM). The resultant IL-6 response was then measured using a homogenous time-resolved FRET kit from Cisbio. The kit utilises two monoclonal antibodies, one labelled with Eu-Cryptate (Donor) and the second with d2 or XL665 (Acceptor). The intensity of the signal is proportional to the concentration of IL-6 present in the sample (Ratio is calculated by 665/620×104).
The ability of a compound to inhibit IL-17 induced IL-6 release from human dermal fibroblasts is measured in this assay.
HDF cells (Sigma #106-05n) were cultured in complete media (DMEM+10% FCS+2 mM L-glutamine) and maintained in a tissue culture flask using standard techniques. Cells were harvested from the tissue culture flask on the morning of the assay using TrypLE (Invitrogen #12605036). The TrypLE was neutralised using complete medium (45 mL) and the cells were centrifuged at 300×g for 3 minutes. The cells were re-suspended in complete media (5 mL) counted and adjusted to a concentration of 3.125×10^4 cells/mL before being added to the 384 well assay plate (Corning #3701) at 40 μL per well. The cells were left for a minimum of three hours, at 37° C./5% CO2, to adhere to the plate.
Compounds were serially diluted in DMSO before receiving an aqueous dilution into a 384 well dilution plate (Greiner #781281), where 5 μL from the titration plate was transferred to 45 μL of complete media and mixed to give a solution containing 10% DMSO.
Mixtures of TNFα and IL-17 cytokine were prepared in complete media to final concentrations of TNFα 25 pM/IL-17A 50 pM, then 30 μL of the solution was added to a 384 well reagent plate (Greiner #781281).
10 μL from the aqueous dilution plate was transferred to the reagent plate containing 30 μL of the diluted cytokines, to give a 2.5% DMSO solution. The compounds were incubated with the cytokine mixtures for 5 h at 37° C. After the incubation, 10 μL was transferred to the assay plate, to give a 0.5% DMSO solution, then incubated for 18-20 h at 37° C./5% CO2.
From the Cisbio IL-6 FRET kit (Cisbio #62IL6PEB) europium cryptate and Alexa 665 were diluted in reconstitution buffer and mixed 1:1, as per kit insert. To a white low volume 384 well plate (Greiner #784075) were added FRET reagents (10 μL), then supernatant (10 μL) was transferred from the assay plate to Greiner reagent plate. The mixture was incubated at room temperature for 3 h with gentle shaking (<400 rpm) before being read on a Synergy Neo 2 plate reader (Excitation: 330 nm; Emission: […]).

Compared with `O=C(N1CCC(F)(F)CC1c1ccc2[nH]c(C(NC(=O)C3(C(F)(F)F)CC3)C(C3CC3)C3CC3)nc2n1)C12CC(F)(C1)C2` (centres unmarked) [Example 1, N-(2,2-Dicyclopropyl-1-{5-[4,4-difluoro-1-(3-fluorobicyclo[1.1.1]pentane-1-carbonyl)-piperidin-2-yl]-1H-imidazo[4,5-b]pyridin-2-yl}ethyl)-1-(trifluoromethyl)cyclopropane-carboxamide], `O=C(N[C@H](c1nc2nc([C@@H]3C[C@@](O)(C(F)F)CCN3C(=O)C34CC(F)(C3)C4)ccc2[nH]1)C(C1CC1)C1CC1)C1(F)CC1` (single isomer, unassigned) [Example 11] is 13-fold lower in IC50: 63.1 nM for the first, 5.01 nM for the second. The second is the more potent here.

Going from `Cc1nonc1C(=O)N[C@@H](c1nc2nc([C@H]3CC(F)(F)CCN3C(=O)C34CC(F)(C3)C4)ccc2[nH]1)C(C1CC1)C1CC1` (single isomer, unassigned) [Example 3] to `Cc1nonc1C(=O)NC(c1nc2nc(C3CC(F)(F)CCN3C(=O)C34CC(F)(C3)C4)ccc2[nH]1)C(C1CC1)C1CC1` (centres unmarked) [Example 2, N-(2,2-Dicyclopropyl-1-{5-[4,4-difluoro-1-(3-fluorobicyclo[1.1.1]pentane-1-carbonyl)-piperidin-2-yl]-1H-imidazo[4,5-b]pyridin-2-yl}ethyl)-4-methyl-1,2,5-oxadiazole-3-carboxamide], the IC50 falls from 15800 nM to 63.1 nM (250-fold).

Compared with `O=C(N[C@H](c1nc2nc([C@H]3C[C@](O)(C(F)F)CCN3C(=O)C34CC(F)(C3)C4)ccc2[nH]1)C(C1CC1)C1CC1)C1(F)CC1` (single isomer, unassigned) [Example 12], `Cc1nonc1C(=O)N[C@@H](c1nc2nc([C@@H]3CC(F)(F)CCN3C(=O)C34CC(F)(C3)C4)ccc2[nH]1)C(C1CC1)C1CC1` (single isomer, unassigned) [Example 4] is 4-fold higher in IC50: 794 nM for the first, 3160 nM for the second. The first is the more potent here.

First: Cc1nonc1C(=O)N[C@@H](c1nc2nc([C@H]3C[C@](O)(C(F)(F)F)CCN3C(=O)C34CC(F)(C3)C4)ccc2[nH]1)C(C1CC1)C1CC1 (single isomer, unassigned) [Example 9]
Second: Cc1nonc1C(=O)N[C@H](c1nc2nc([C@H]3C[C@](O)(C(F)(F)F)CCN3C(=O)C34CC(F)(C3)C4)ccc2[nH]1)C(C1CC1)C1CC1 (single isomer, unassigned) [Example 7]
The IC50 of the first is higher: greater than 10000 nM for the first, 2510 nM for the second.

Going from `Cc1nonc1C(=O)N[C@H](c1nc2nc([C@@H]3C[C@@](O)(C(F)(F)F)CCN3C(=O)C34CC(F)(C3)C4)ccc2[nH]1)C(C1CC1)C1CC1` (single isomer, unassigned) [Example 8] to `Cc1nonc1C(=O)N[C@H](c1nc2nc([C@H]3CC(F)(F)CCN3C(=O)C34CC(F)(C3)C4)ccc2[nH]1)C(C1CC1)C1CC1` (single isomer, unassigned) [Example 5], the IC50 rises from 7.94 nM to 398 nM (50-fold).

`Cc1nonc1C(=O)N[C@H](c1nc2nc([C@@H]3CC(F)(F)CCN3C(=O)C34CC(F)(C3)C4)ccc2[nH]1)C(C1CC1)C1CC1` (single isomer, unassigned) [Example 6] was tested, and the IC50 was 12.6 nM.
